Like-named read-outs stand apart in the source and are kept apart here.
Columns and labels:
C26 cells [1] = assay: cells
Procedure: At first, C26 cells were seeded in RPMI 1640 media in 96-well plates (5000 cells/well) and were incubated at 37° C. After overnight incubation, cells were treated with different concentration of drug (1:2 serial dilutions of liposomal doxorubicin or free doxorubicin in FCS-free medium) and then incubated at 37° C. for 3 and 6 hours.
After scheduled incubation times, cells were washed with pre-warmed complete culture media and re-incubated further for 48 hours at 37° C. and then the viability of cells was determined by MTT assay; for this purpose, 20 ml of MTT (Thiazolyl Blue Tetrazolium Bromide; Sigma-Aldrich) was added to each well of the plate and was incubated for 4 hours at 37° C.
Relative cell death was calculated as follows: R=(A control−A test)/(A control−A blank) where A test and A control were the absorbance of the cells treated with the test dilutions and the culture medium (negative control). A blank was the absorbance of cell free wells.

[2] = Bio-distribution study in tumor-bearing mice; conditions: 24 and 48 h; FIG. 8A
Procedure: Blood samples were collected 3, 6, and 12 hours after drug injection via retro orbital bleeding.
Animals were sacrificed at 24 and 48 h after drug administration and blood samples were drawn by heart puncture. The whole tumor, one of the kidneys, spleen, heart, lungs as well as a portion of the liver and muscle were dissected, weighted and homogenized in acidified isopropanol with zirconia beads by Mini-Beadbeater-1 (Biospec, OK). Then the blood and the homogenized tissue samples were centrifuged and the blood serum as well as the sera of tissue samples were diluted in adequate volume of acidified isopropanol and stored at 4° C. overnight for Doxorubicin extraction.
The samples were centrifuged and the supernatant was assayed for Doxorubicin concentration by measuring fluorescence at λEx/Em=480/590 nm compared with Doxorubicin calibration curves, which were prepared in the tissue and sera extracts of the control mice. The pharmacokinetic concentration of doxorubicin was shown as μg/ml of serum.

[3] = tested on: C-26 colon carcinoma tumor; assay: In vivo tumor-targeted therapeutic study; conditions: mice bearing C-26 tumor
Procedure: Tumor models were C26 colon carcinoma in BALB/c mice Female BALB/c mice 4-6 week's old and female C57BL/6 mice 6-12 weeks old were injected subcutaneously in the right flank with tumor cells.
Also tumor size was monitored three times a week for 60 days. Three dimensions of tumor (height, length and width) were measured with calipers and tumor volume was calculated via the following formula: tumor volume=(height×length×width)×0.5 cm^3. According to instructions for C26 tumor bearing animals, euthanasia was occurred when their body weight decreased (>20% loss of initial mass), their tumor was greater than 2.0 cm in one dimension or they became sick and unable to feed.
The median survival time (MST) and time to reach end point (TTE) for each mouse were calculated from the equation of the line obtained by exponential regression of the tumor growth curve. Subsequently, the percent of tumor growth delay (TGD) were calculated based on the difference between the mean TTE of treatment group (T) and the mean TTE of the control group (C) (% TGD=[(T−C)/C]×100).

C26 cells [4] = assay: In vitro cellular uptake at 37° C., flow cytometry; assay type: cell-based; conditions: 20 μg doxorubicin/ml, 3 hours, FIG. 6B
Procedure: (§2) For evaluating in vitro cellular uptake, NIH3T3 cells were seeded in complete DMEM and C26 were seeded in complete RPMI in 24-well plates (2×10^5 cells/well). […] Then, cells were washed with PBS, detached by 100 μl of trypsin-EDTA solution (Gibco, UK) and centrifuged at 1500 rpm for 5 minutes. The cells were washed with cold PBS three times and resuspended in staining buffer before analysis. […] Then 0.9 ml of an acidified isopropanol was added to each well, and the mixture was incubated overnight at 4° C. to extract the cell-associated doxorubicin. After sedimentation of the cell debris, doxorubicin concentration was measured.
(§3) Referring to FIGS. 6A and 6B, the geometric mean fluorescence intensity (MFI) of doxorubicin in cells was analyzed by using flow cytometry (FCM) in the FL2 channel.

HDM-2-positive C26 cells = assay: In vitro cellular binding at 4° C., flow cytometry; assay type: cell-based; conditions: 20 μg doxorubicin/ml, 1 hour, FIG. 5B
Procedure: (§1) The exemplary procedure was as follows: cells were detached from cell culture dishes by using 0.05% trypsin and 0.02% EDTA (GIBCO). […] Afterward, the cells were washed three times with PBS and re-suspended in an appropriate volume of the buffer and were analyzed by flow cytometry. BD FACS Calibur equipped was used to read fluorescence signal.

[5] = tested on: HDM-2-negative NIH-3T3 cells; assay: In vitro cellular binding at 4° C., flow cytometry; assay type: cell-based, mouse; conditions: NIH3T3 cells, 20 μg doxorubicin/ml, 1 hour, FIG. 5A
Procedure: as §1

[6] = tested on: HDM-2-negative NIH-3T3 cells; conditions: NIH3T3 cells, 20 μg doxorubicin/ml, 37° C., 3 hours; FIG. 6A
Procedure: as §2, §3

[7] = single i.v. dose 15 mg/kg doxorubicin

COc1cccc2c1C(=O)c1c(O)c3c(c(O)c1C2=O)C[C@@](O)(C(=O)CO)C[C@@H]3O[C@H]1C[C@H](N)[C@H](O)[C@H](C)O1 [Free doxorubicin, doxorubicin]
IC50 (C26 cells [1]; C26, read-out: IC50 (μM ± SD), C26 cells, 3 h exposure, then 48 h re-incubation): 0.625 ± 0.07 µM | IC50 (C26 cells [1]; C26, read-out: IC50 (μM ± SD), C26 cells, 6 h exposure, then 48 h re-incubation): 0.302 ± 0.05 µM | bio-distribution in serum [2]: decreasing trend over time | TGD (tumor growth delay) ([3]; 15 mg/kg, [(T−C)/C]×100 of mean TTE): 24.42% | MST (median survival time) [3, 7]: 27 days | TTE (time to reach end point) [3, 7]: 27 days | cellular uptake (MFI of doxorubicin) (C26 cells [4]): too high | cellular binding (HDM-2-positive C26 cells): more than other forms of drugs | cellular binding [5]: more than other forms of drugs | cellular uptake (MFI of doxorubicin) [6]: too high

From patent US20170027868A1, “PEPTIDE-[…]” (priority 2015, published 2017)
